For two compounds, IC50 results are on record in patent US20060247271A1, “Sulphonyl hydroxamic acid derivatives as inhibitors of s-cd23” (priority 2003, published 2006).

Assay [1] has as its target T1, MMP-3 (Homo sapiens, UniProt P08254).
T1 construct: purchased Calbiochem
Kind of assay: General MMP inhibition fluorescence quench assay, MMP-3. In kind it is biochemical. The note with it: room temperature. The procedure: (§1) General MMP Inhibition Assays:
(§2) Inhibition of matrix metalloprotease activity was determined using a fluorescence quench assay with appropriate substrate. For example, MMP activity was determined using MMP activated using trypsin, according to Lark et al, Connective Tissue Res. 25, 52 (1990). The MMP is incubated at room temperature in a microtitre plate in a total volume of 100 ul, containing 0.15 M Tris Cl, 15 mM CaCl2, 0.2 M NaCl, pH 7.6 (assay buffer); inhibitor at concentrations up to 100 uM, with no more than 2% DMSO final concentration, 10 uM substrate (such as SDP-3815-PI for MMP-1, Peptides International). The MMP concentration is <10 nM, and determined empirically with the appropriate substrate to give at least a 20-fold increase in fluorescence emission in 30 min. Fluorescent excitation wavelength was 355 nm, emission wavelength 400-460 nm, and data points are collected to generate slope (change in fluorescence with time). Percent inhibition for each concentration is calculated from the slope at time zero, and IC50 values from the concentration dependence. MMP-1, 2, 3, 7, 9, 13, 14 may all be assayed in the same manner, using commercially available substrates reported to be effective for each enzyme. Enzymes were obtained from Calbiochem and activated using the same trypsin method.

In assay [2] the test system is release of soluble CD23 (RPMI 8866 cell plasma membranes). In words: RPMI 8866 cell membrane CD23 cleavage activity assay. The format is biochemical, human. The settings on record: RPMI 8866 plasma membranes, 37° C., sCD23 by EIA; read-out: IC50, inhibition of production of sCD23. The procedure:
Procedure 1: The ability of test compounds to inhibit the release of soluble CD23 was investigated by use of the following procedure.
RPMI 8866 Cell Membrane CD23 Cleavage Activity Assay:
Plasma membranes from RPMI 8866 cells, a human Epstein-Barr virus transformed B-cell line (Sarfati et al., Immunology 60 [1987] 539-547) expressing high levels of CD23 are purified using an aqueous extraction method. Cells resuspended in homogenization buffer (20 mM HEPES pH 7.4, 150 mM NaCl, 1.5 mM MgCl2, 1 mM DTT) are broken by N2 cavitation in a Parr bomb and the plasma membrane fraction mixed with other membranes is recovered by centrifugation at 10,000×g. […]
The fractionated membranes are incubated at 37° C. for times up to 4 hrs to produce fragments of CD23 which are separated from the membrane by filtration in 0.2 micron Durapore filter plates (Millipore) after quenching the assay with 5 uM Preparation 1 from WO 95/31457 ([4-(N-Hydroxyamino)-2-(R)-isobutyl-3-(S)-(2-thiophenethiomethyl)succinyl]-(S)-phenylalanine—methylamide sodium salt, prepared according to the procedure descibed in Example 11 of WO 90/05719). sCD23 released from the membrane is determined using the EIA kit from The Binding Site (Birmingham, UK) or a similar one utilising MHM6 anti-CD23 mAb [Rowe et al., Int. […]

For assay [3], the target named is T2, human recombinant collagenase (Homo sapiens, UniProt P03956).
T2 construct: made in house; host or cells: E. coli
T2 sequence (P03956 100-469): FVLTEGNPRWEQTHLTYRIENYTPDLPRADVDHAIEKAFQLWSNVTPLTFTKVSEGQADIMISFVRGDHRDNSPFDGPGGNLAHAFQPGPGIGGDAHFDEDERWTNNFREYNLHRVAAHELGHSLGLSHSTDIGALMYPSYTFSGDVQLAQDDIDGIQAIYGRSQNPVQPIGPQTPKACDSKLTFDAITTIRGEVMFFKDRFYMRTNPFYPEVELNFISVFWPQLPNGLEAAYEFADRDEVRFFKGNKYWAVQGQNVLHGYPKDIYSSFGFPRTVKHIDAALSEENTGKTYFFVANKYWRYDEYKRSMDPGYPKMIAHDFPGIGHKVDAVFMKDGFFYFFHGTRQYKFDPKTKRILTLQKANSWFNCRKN
Kind of assay: Collagenase inhibition assay. The format is biochemical. The settings on record: 37° C., 18 h, acetylated 3H type 1 bovine collagen. Here is the method:
Procedure 2: The ability of test compounds to inhibit matrix metalloproteases was investigated using the following procedures.
Collagenase Inhibition Assay:
The potency of compounds to act as inhibitors of collagenase was determined by the method of Cawston and Barrett (Anal. Biochem. 99, 340-345, 1979), hereby incorporated by reference, whereby a 1 mM solution of the inhibitor being tested or dilutions thereof, was incubated at 37° C. for 18 h with collagen and human recombinant collagenase, from synovial fibroblasts cloned, expressed and purified from E. Coli, (buffered with 150 mM Tris, pH 7.6, containing 15 mM calcium chloride, 0.05% Brij 35, 200 mM sodium chloride and 0.02% sodium azide). The collagen was acetylated ^3H type 1 bovine collagen prepared by the method of Cawston and Murphy (methods in Enzymology 80, 711,1981) The samples were centrifuged to sediment undigested collagen and an aliquot of the radioactive supernatant removed for assay on a scintillation counter as a measure of hydrolysis. The collagenase activity in the presence of 1 mM inhibitor, or dilution thereof, was compared to activity in a control devoid of inhibitor and the results reported as that concentration effecting 50% of the collagenase (IC50).

Assay [4] concerns the target T3, MMP-13 (Homo sapiens, UniProt P45452).
T3 construct: purchased Calbiochem
In words: General MMP inhibition fluorescence quench assay, MMP-13. The format is biochemical. The settings on record: room temperature. Here is the method:
as §1, §2

T1 sequence (P08254 100-477, species assumed): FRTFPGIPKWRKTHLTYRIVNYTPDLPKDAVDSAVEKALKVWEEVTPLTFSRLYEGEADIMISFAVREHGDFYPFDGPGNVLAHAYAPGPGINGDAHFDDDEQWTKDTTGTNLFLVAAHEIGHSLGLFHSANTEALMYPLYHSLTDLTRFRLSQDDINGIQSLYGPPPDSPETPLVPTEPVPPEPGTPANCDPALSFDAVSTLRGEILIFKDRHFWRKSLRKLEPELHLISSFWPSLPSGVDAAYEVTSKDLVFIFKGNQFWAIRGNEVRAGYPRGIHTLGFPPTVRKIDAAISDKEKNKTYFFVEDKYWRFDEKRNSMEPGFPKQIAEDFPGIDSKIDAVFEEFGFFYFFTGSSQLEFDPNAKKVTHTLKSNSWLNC

On to `O=C(NO)C(CS(=O)(=O)Cc1cnc2ccccc2c1)c1ccccc1` (centres unmarked) [Example 1, N-Hydroxy-2-phenyl-3-(3-quinolylmethanesulfonyl)-propionamide], for which the IC50 (in general, the concentration needed to halve the response being measured) in assay [1] was above 10 µM; in assay [2] it was 0.01 µM; in assay [3], above 10 µM.
In the case of `CCCO[C@@H](CS(=O)(=O)Cc1cnc2ccccc2c1)C(=O)NO` [Example 2, (R)—N-Hydroxy-2-propoxy-3-(quinolin-3-ylmethanesulfonyl)-propionamide], the IC50 in assay [4] came to 7 µM; in assay [2] it was 0.11 µM.
